Reference: patent US20260207602A1, “EGFR INHIBITORS” (Blueprint Medicines Corporation, priority 2022, published 2026)

Legend:
EGFR M+ NSCLC patients = conditions: first line (1L), NSCLC harboring del19 and L858R mutations; cited from earlier work
[1] = target: intracellular phosphorylation of EGFR (Tyr1068) in PC-9 cells (Homo sapiens, UniProt P00533, DEL746-750); assay: PC-9 pEGFR AlphaLISA assay; assay type: cell-based; conditions: 4 hours incubation, read-out: Phos EGFR PC9 IC50
Summary of the method: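 PC-9 cells (EGFR del746-750) in phenol-free DMEM/10% FBS, adhered overnight, then exposed to 10-point 4-fold compound dilutions for 4 h at 37 °C. Lysates assayed for pEGFR Tyr1068 by AlphaLISA SureFire Ultra; IC50 from percent pEGFR inhibition vs log concentration.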

EGFR L858R = target: T1, EGFR L858R (Homo sapiens, UniProt P00533, L858R); assay: Biochemical EGFR inhibition assay (Caliper mobility shift), EGFR L858R; conditions: biochemical Caliper mobility shift assay, EGFR L858R enzyme; read-out: Enz EGFR L858R IC50
T1 construct: purchased SignalChem E10-122BG
Summary of the method: (§1)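 Mobility-shift readout: phosphorylated and unphosphorylated 5-FAM peptide (2.5 µM) separated electrophoretically. Reactions at room temperature (25 °C), 1.0 mM ATP or ATP Km, HEPES pH 7.5 with MgCl2, Brij-35, DTT and 1.0% DMSO; terminated at 10–20% turnover with 35 mM EDTA. Apparent IC50 fitted.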

EGFR (d746-750) = target: T2, EGFR (d746-750) (Homo sapiens, UniProt P00533, DEL746-750); assay: Biochemical EGFR inhibition assay (Caliper mobility shift), EGFR (d746-750); conditions: biochemical Caliper mobility shift assay, EGFR Exon 19-del enzyme; read-out: Enz EGFR Exon 19-del IC50
T2 construct: purchased SignalChem E10-122JG
Summary of the method: as §1

T2 sequence (P00533 with tags, fused parts or gaps DEL746-750 limits assumed): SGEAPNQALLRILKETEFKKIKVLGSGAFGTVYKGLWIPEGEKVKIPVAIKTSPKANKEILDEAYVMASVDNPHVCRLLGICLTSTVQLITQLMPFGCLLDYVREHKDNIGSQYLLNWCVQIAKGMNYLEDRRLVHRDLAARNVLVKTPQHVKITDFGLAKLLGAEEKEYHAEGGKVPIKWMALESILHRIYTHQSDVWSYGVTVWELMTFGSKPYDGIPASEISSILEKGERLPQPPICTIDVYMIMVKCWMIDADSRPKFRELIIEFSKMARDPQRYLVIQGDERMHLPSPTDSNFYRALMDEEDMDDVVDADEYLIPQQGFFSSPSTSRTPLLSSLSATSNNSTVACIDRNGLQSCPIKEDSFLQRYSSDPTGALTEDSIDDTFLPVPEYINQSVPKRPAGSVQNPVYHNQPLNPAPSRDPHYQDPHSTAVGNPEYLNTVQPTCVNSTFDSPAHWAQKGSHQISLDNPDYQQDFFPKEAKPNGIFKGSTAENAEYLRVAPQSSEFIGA
intracellular phosphorylation of EGFR (Tyr1068) in PC-9 cells, sequence (P00533 with tags, fused parts or gaps DEL746-750): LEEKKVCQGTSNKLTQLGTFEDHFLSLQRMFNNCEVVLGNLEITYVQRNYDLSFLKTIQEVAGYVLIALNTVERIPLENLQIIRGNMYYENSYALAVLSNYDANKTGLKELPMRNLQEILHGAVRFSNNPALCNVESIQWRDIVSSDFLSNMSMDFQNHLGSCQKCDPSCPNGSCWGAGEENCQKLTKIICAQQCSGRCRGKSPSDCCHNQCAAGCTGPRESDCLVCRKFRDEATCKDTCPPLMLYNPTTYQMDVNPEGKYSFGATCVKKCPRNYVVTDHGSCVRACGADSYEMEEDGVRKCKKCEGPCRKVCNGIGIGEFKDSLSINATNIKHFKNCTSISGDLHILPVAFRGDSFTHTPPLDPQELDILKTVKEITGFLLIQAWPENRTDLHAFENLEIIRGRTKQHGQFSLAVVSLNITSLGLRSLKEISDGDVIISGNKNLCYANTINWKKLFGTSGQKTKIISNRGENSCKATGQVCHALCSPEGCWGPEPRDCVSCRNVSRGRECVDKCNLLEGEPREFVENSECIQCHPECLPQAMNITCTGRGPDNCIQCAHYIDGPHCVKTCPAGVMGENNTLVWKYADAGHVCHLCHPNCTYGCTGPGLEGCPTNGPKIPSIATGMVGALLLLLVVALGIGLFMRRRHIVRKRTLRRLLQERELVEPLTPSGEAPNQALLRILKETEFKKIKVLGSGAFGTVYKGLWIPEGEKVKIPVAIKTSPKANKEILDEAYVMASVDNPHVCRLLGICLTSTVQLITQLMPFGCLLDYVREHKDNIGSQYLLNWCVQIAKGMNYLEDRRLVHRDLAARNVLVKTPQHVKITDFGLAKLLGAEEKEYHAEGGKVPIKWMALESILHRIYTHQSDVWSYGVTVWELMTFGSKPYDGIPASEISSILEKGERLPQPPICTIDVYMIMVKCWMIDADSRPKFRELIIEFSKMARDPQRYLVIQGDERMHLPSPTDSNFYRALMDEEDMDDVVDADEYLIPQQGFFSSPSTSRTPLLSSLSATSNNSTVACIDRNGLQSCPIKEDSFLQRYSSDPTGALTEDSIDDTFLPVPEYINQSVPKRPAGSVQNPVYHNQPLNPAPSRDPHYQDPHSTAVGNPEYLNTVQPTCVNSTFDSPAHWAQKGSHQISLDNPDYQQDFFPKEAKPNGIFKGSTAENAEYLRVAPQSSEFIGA
T1 sequence (P00533 25-1210 L858R): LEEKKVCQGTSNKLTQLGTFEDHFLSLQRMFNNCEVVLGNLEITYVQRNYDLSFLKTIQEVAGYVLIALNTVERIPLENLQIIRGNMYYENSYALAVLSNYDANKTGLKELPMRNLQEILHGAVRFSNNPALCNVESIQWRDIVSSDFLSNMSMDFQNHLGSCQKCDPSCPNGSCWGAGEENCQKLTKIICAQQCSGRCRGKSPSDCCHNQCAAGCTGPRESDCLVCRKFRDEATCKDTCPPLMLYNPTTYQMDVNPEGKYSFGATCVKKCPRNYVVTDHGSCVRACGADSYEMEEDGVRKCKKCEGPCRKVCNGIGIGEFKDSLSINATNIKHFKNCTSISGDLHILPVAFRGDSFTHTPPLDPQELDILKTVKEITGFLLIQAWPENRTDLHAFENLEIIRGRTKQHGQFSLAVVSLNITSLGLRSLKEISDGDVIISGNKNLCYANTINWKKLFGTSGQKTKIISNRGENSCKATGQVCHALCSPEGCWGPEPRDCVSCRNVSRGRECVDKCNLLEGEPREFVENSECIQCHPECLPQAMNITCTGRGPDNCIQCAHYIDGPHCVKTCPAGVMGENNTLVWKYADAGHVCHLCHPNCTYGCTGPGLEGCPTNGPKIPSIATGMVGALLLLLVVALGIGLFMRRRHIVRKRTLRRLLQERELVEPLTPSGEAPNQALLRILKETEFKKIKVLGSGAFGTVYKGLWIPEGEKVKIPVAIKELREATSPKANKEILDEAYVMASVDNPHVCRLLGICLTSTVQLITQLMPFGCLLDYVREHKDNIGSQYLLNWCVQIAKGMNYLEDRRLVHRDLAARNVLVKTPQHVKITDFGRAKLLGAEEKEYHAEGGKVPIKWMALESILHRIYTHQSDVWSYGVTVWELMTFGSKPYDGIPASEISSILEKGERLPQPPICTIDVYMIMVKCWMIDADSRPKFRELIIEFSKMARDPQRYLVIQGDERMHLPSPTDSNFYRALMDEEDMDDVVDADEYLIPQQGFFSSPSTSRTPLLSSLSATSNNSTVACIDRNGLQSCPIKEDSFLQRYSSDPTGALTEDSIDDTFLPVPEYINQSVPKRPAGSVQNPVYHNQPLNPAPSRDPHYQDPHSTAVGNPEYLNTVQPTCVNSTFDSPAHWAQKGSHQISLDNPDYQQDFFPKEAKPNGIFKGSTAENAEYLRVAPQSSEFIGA

C=CC(=O)Nc1cc(Nc2nccc(-c3cn(C)c4ccccc34)n2)c(OC)cc1N(C)CCN(C)C [Osimertinib]
progression-free survival (PFS) (EGFR M+ NSCLC patients): 18.9 mo

CN1CC[C@@H](Oc2cc(-c3cnn(C)c3)cc3ncnc(Nc4ccc5ncsc5c4)c23)[C@@H](F)C1 (racemic) [Example 339, cis-N-(5-(((3S,4R)-3-fluoro-1-methylpiperidin-4-yl)oxy)-7-(1-methyl-1H-pyrazol-4-yl)quinazolin-4-yl)benzo[d]thiazol-6-amine]
IC50 [1]: ≤ 10 nM | IC50 (EGFR L858R): ≤ 10 nM | IC50 (EGFR (d746-750)): ≤ 10 nM

Cn1cc(-c2cc(O[C@H]3COC[C@@H]3O)c3c(Nc4ccc5ncsc5c4)ncnc3c2)cn1 (single isomer, unassigned) [Example A30]
IC50 [1]: > 50.1 nM | IC50 (EGFR L858R): ≤ 10 nM | IC50 (EGFR (d746-750)): ≤ 10 nM

Cn1cc(-c2cc(OC3CC4(COC4)C3)c3c(Nc4ccc5ncsc5c4)ncnc3c2)cn1 [Example 38, N-(5-((2-oxaspiro[3.3]heptan-6-yl)oxy)-7-(1-methyl-1H-pyrazol-4-yl)quinazolin-4-yl)benzo[d]thiazol-6-amine]
IC50 [1]: ≤ 10 nM | IC50 (EGFR L858R): ≤ 10 nM | IC50 (EGFR (d746-750)): ≤ 10 nM
